Patent publication US20150239889A1, “PYRAZOLOPYRIMIDINE COMPOUND” (MITSUBISHI TANABE PHARMA CORPORATION, priority 2012, published 2015)

Legend:
human HIF-PHD2 = target: T1, human HIF-PHD2 (Homo sapiens, UniProt Q9GZT9); test: HIF-PHD inhibition assay (fluorescence polarization), human HIF-PHD2; assay type: biochemical; details: 2-oxoglutaric acid 3.33 μmol/L
T1 construct: purchased CrystalGenomics Ltd
Outline: (§1)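 Fluorescence polarization was read before and after adding enzyme, and the difference (mP value) taken as enzyme activity. The tracer carried a FAM (5′-fluoresceinamide) tag linked via aminocaproic acid.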

Hep3B cells = test: EPO production assay (ELISA of culture supernatant); assay type: cell-based; details: Homo sapiens, 3 μmol/L test compound, 48 hours, relative to control (0.1% DMSO), read-out: EPO production stimulation rate with 3 μmol/L test compound
Outline: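 Hep3B cells (40000/well) switched to MEM with 0.5% FBS and treated with compound (0.1% DMSO) for 48 h at 37 °C. Supernatant EPO measured by ELISA; value is fold stimulation at 3 μmol/L compound over unstimulated control.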

human HIF-PHD3 = target: T2, human HIF-PHD3 (Homo sapiens, UniProt Q9H6Z9); test: HIF-PHD inhibition assay (fluorescence polarization), human HIF-PHD3; assay type: biochemical; details: 2-oxoglutaric acid 166 μmol/L
T2 construct: purchased CrystalGenomics Ltd
Outline: as §1

T1 sequence (Q9GZT9 2-426 limits assumed): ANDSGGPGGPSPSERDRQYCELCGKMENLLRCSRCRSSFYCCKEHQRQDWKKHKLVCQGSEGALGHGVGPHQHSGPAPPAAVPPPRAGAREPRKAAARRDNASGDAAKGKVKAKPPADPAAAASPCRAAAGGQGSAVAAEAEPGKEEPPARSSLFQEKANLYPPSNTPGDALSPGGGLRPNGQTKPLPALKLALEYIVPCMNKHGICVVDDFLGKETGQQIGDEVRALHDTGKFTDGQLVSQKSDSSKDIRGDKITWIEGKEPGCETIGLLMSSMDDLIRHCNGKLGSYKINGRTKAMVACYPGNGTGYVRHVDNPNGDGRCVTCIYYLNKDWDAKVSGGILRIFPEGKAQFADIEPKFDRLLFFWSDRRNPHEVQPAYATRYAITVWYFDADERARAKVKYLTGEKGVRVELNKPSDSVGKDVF
T2 sequence (Q9H6Z9 whole entry): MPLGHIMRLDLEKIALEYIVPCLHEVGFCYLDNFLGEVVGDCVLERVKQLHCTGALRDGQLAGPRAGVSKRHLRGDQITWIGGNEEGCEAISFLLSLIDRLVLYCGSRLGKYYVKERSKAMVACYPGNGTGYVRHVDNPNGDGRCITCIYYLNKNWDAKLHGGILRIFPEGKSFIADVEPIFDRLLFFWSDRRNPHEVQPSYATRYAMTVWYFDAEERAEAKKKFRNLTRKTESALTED

| Compound | IC50 (human HIF-PHD2) [nM] | fold induction at 3 µM (Hep3B cells) | IC50 (human HIF-PHD3) [nM] |
| --- | --- | --- | --- |
| O=C(O)c1cnn(-c2nc(O)c3c(cnn3C[C@H]3CC[C@@H](Oc4ccccc4F)CC3)n2)c1 [Example 147] | 5.3 | 4 | 330 |
| O=C(O)c1cnn(-c2nc(O)c3c(cnn3CCOc3ccccc3)n2)c1 [Example 200] | 12 | 1.4 | 1800 |
| O=C(O)c1cnn(-c2nc(O)c3c(n2)c(C2CC2)nn3CC2CCCCC2)c1 [Example 234] | 91 | 5.7 | 660 |
| CCC(c1ccc(C(F)(F)F)cc1)n1ncc2nc(-n3cc(C(=O)O)cn3)nc(O)c21 (stereo not drawn) [Example 326] | 53 | 7.7 | 360 |
| CC(C)(Cn1ncc2nc(-n3cc(C(=O)O)cn3)nc(O)c21)Oc1ccc2ccccc2c1 [Example 213] | 17 | 6.4 | 110 |
| COc1ccccc1-c1ccc(Cn2ncc3nc(-n4cc(C(=O)O)cn4)nc(O)c32)cc1OC [Example 99] | 37 | 3.1 | 200 |
| O=C(O)c1cnn(-c2nc(O)c3c(n2)c(F)nn3CCC2CCCCC2)c1 [Example 472] | 17 | 2.4 | 350 |
| O=C(O)c1cnn(-c2nc(O)c3c(cnn3Cc3ccc(-c4cc(F)ccc4F)cc3)n2)c1 [Example 77] | 8.7 | 9.8 | 130 |
| CC(C)(Cc1ccc2ccccc2c1)Cn1ncc2nc(-n3cc(C(=O)O)cn3)nc(O)c21 [Example 133] | 110 | 3.9 | 370 |
| Cc1ccc(O[C@H]2CC[C@H](Cn3ncc4nc(-n5cc(C(=O)O)cn5)nc(O)c43)CC2)cc1 [Example 151] | 13 | 38 | 220 |
| O=C(O)c1cnn(-c2nc(O)c3c(cnn3Cc3ccc(-c4cc(C(F)(F)F)ccc4F)nc3)n2)c1 [Example 105] | 12 | 9.5 | 110 |
| O=C(O)c1cnn(-c2nc(O)c3c(n2)c(F)nn3CC2CCCCC2)c1 [Example 217] | 32 | 2.4 | 920 |
| CCC(c1ccc(C(F)(F)F)cc1)n1ncc2nc(-n3cc(C(=O)O)cn3)nc(O)c21 (single isomer, unassigned) [Example 327] | 290 | 9.4 | 1200 |
| O=C(O)c1cnn(-c2nc(O)c3c(cnn3CC[C@H]3CC[C@H](c4ccccc4)CC3)n2)c1 [Example 163] | 19 | 13 | 120 |
| O=C(O)c1cnn(-c2nc(O)c3c(cnn3CCCOc3cccc(C(F)(F)F)c3)n2)c1 [Example 174] | 32 | 9.9 | 570 |
| O=C(O)c1cnn(-c2nc(O)c3c(cnn3C[C@H]3CC[C@H](Oc4cccc(F)c4)CC3)n2)c1 [Example 148] | 10 | 11 | 250 |
| O=C(O)c1cnn(-c2nc(O)c3c(cnn3Cc3ccc(-c4ccccc4OC(F)(F)F)cc3F)n2)c1 [Example 86] | 21 | 2.5 | 330 |
| O=C(O)c1cnn(-c2nc(O)c3c(cnn3Cc3cccc(-c4ccccc4F)c3)n2)c1 [Example 46] | 68 | 3.7 | 85 |
| O=C(O)c1cnn(-c2nc(O)c3c(cnn3Cc3ccc(C(F)(F)F)c(Cl)c3)n2)c1 [Example 6] | 41 | 6.1 | 130 |
| CCCC(CCC)Cn1ncc2nc(-n3cc(C(=O)O)cn3)nc(O)c21 [Example 495] | 68 | 18 | 500 |
| O=C(O)c1cnn(-c2nc(O)c3nn(CC4CCN(c5ccc(C(F)(F)F)cn5)CC4)cc3n2)c1 [Example 247] | 17 | 1.3 | 270 |

| Compound | IC50 (human HIF-PHD2) [nM] | fold induction at 3 µM (Hep3B cells) | IC50 (human HIF-PHD3) [nM] |
| --- | --- | --- | --- |
| O=C(O)c1cnn(-c2nc(O)c3c(n2)c(F)nn3CC2CCC3(CCC3)CC2)c1 [Example 467] | 15 | 3.2 | 270 |
| CC(C)[C@H]1CC[C@H](Cn2nc(Cl)c3nc(-n4cc(C(=O)O)cn4)nc(O)c32)CC1 [Example 224] | 11 | 8.4 | 91 |
| O=C(O)c1cnn(-c2nc(O)c3c(cnn3CCCN(c3ccccc3)c3ccccc3)n2)c1 [Example 168] | 23 | 66 | 200 |
| O=C(O)c1cnn(-c2nc(O)c3c(cnn3CCOc3cccc4ccccc34)n2)c1 [Example 206] | 32 | 2.2 | 510 |
| O=C(O)c1cnn(-c2nc(O)c3c(cnn3Cc3ccc(-c4ccccc4C(F)(F)F)cc3)n2)c1 [Example 61] | 12 | 6 | 180 |
| O=C(O)c1cnn(-c2nc(O)c3c(cnn3CCOc3ccccc3C(F)(F)F)n2)c1 [Example 201] | 130 | 3.2 | 860 |
| O=C(O)c1cnn(-c2nc(O)c3c(cnn3CCc3ccc(Cl)c(Cl)c3)n2)c1 [Example 115] | 24 | 5.1 | 220 |
| CC(C)(Cn1ncc2nc(-n3cc(C(=O)O)cn3)nc(O)c21)Oc1ccc2c(c1)CCCC2 [Example 214] | 17 | 6.8 | 220 |
| O=C(O)c1cnn(-c2nc(O)c3nn(Cc4cc(C(F)(F)F)cc(Cl)c4F)cc3n2)c1 [Example 238] | 10 | 0.7 | 770 |
| O=C(O)c1cnn(-c2nc(O)c3c(cnn3CCCOc3ccccc3C(F)(F)F)n2)c1 [Example 173] | 13 | 7.7 | 190 |
| C[C@H](c1ccc(-c2ccccc2F)cc1)n1ncc2nc(-n3cc(C(=O)O)cn3)nc(O)c21 [Example 111] | 25 | 36 | > 1000 |
| C[C@H](c1ccc(Cl)cc1)n1ncc2nc(-n3cc(C(=O)O)cn3)nc(O)c21 [Example 20] | 65 | 5.5 | 1200 |
| O=C(O)c1cnn(-c2nc(O)c3c(cnn3Cc3ccc(-c4ccccc4F)cc3)n2)c1 [Example 56] | 16 | 19 | 260 |
| O=C(O)c1cnn(-c2nc(O)c3nn(CCc4ccc5ccccc5c4)cc3n2)c1 [Example 243] | 57 | 1.6 | 260 |
| O=C(O)c1cnn(-c2nc(O)c3c(cnn3CCC3Cc4ccccc4C3)n2)c1 [Example 164] | 21 | 8.8 | 210 |
| Cc1cc(OCCCn2ncc3nc(-n4cc(C(=O)O)cn4)nc(O)c32)cc(C)c1Cl [Example 182] | 22 | 9.1 | 56 |
| O=C(O)c1cnn(-c2nc(O)c3c(cnn3Cc3ccc(C4CCCCC4)cc3)n2)c1 [Example 37] | 26 | 8.3 | 120 |
| O=C(O)c1cnn(-c2nc(O)c3nn(CCC(c4ccccc4)c4ccccc4)cc3n2)c1 [Example 248] | 15 | 3.2 | 99 |
| Cc1ccc(-c2ccc(Cn3ncc4nc(-n5cc(C(=O)O)cn5)nc(O)c43)cc2)c(C)c1 [Example 70] | 11 | 24 | 110 |
| C[C@@H](C1CCCCC1)n1nc(F)c2nc(-n3cc(C(=O)O)cn3)nc(O)c21 [Example 468] | 25 | 3.1 | 300 |
| O=C(O)c1cnn(-c2nc(O)c3c(cnn3Cc3ccc(Cl)cc3F)n2)c1 [Example 5] | 130 | 2.9 | 740 |
